Legend:
[1] = biological target: T1, MKK4 (Homo sapiens, UniProt P45985); test: KINOMEscan competition binding assay, MKK4 potency; conditions: concentration of 100 nM
T1 construct: S84/D399; host or cells: HEK-293
T1 sequence (P45985 84-399): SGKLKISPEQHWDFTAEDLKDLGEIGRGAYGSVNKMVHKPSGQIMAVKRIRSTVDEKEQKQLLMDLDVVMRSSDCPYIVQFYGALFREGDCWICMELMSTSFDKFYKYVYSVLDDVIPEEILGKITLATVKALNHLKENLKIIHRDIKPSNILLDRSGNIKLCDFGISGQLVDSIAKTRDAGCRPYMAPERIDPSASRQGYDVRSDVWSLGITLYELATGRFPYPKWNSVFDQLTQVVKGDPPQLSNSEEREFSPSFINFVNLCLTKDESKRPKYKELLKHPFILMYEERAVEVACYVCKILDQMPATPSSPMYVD
In short: (§1)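 DNA-tagged kinases expressed in HEK-293 cells compete between test compound and immobilized ligand on blocked beads. Bound kinase is eluted and quantified by qPCR of the DNA tag. Compounds were tested at the indicated final concentrations, prepared from 10 mM stocks.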

[2] = biological target: T2, JNK1 (Homo sapiens, UniProt P45983); test: KINOMEscan competition binding assay, selectivity against off-target JNK1; conditions: concentration of 100 nM
T2 construct: M1/Q384; host or cells: HEK-293
In short: as §1

[3] = biological target: T3, MKK7 (Homo sapiens, UniProt O14733); test: KINOMEscan competition binding assay, selectivity against off-target MKK7; conditions: concentration of 100 nM
T3 construct: M1/R419; host or cells: HEK-293
T3 sequence (O14733 1-419): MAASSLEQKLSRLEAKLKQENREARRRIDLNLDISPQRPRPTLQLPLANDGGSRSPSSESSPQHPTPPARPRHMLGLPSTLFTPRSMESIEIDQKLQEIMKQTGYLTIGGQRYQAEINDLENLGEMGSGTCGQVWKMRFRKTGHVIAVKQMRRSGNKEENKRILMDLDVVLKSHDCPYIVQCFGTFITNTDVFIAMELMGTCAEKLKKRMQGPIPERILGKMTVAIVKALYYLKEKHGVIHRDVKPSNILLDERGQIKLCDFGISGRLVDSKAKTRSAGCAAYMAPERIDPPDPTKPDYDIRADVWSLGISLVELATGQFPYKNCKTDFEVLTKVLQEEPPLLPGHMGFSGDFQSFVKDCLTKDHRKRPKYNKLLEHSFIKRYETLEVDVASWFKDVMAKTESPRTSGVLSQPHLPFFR
In short: as §1

[4] = biological target: BRaf (Homo sapiens, UniProt P15056); test: KINOMEscan competition binding assay, selectivity against off-target BRaf; conditions: concentration of 100 nM
In short: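 Competition binding: test compound competes with an immobilized ligand for DNA-tagged BRaf, and kinase captured on the ligand is quantified by qPCR of the DNA tag. Compounds from 10 mM stocks were tested at the indicated final concentrations.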

[5] = biological target: T4, MKK4-MEKK2 mix (Homo sapiens, UniProt P45985); test: Radiometric protein kinase assay, MEKK2 dependent MKK4 activation (cascade); assay type: biochemical; conditions: substrate JNK1 KRKR, ATP 0.2 μM, read-out: Cascade, potency derived from IC50-values
T4 construct: MEKK2, recombinant, active: ProQinase product #0583-0000-1
T4 sequence (P45985 2-399): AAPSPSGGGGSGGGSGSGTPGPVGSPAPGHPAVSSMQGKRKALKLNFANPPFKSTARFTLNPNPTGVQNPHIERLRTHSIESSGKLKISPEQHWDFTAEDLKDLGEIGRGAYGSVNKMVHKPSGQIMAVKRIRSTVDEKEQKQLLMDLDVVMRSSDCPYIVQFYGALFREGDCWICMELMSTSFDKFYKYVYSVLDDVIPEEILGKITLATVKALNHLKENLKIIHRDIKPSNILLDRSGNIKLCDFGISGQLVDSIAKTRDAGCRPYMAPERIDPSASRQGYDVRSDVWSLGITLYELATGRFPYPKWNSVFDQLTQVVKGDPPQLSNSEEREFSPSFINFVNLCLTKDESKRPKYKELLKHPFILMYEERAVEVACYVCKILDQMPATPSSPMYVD
Description: The activation step is done in 50 mM HEPES pH 7.5, 50 mM NaCl, 3.8 mM MgCl2, 2.5 mM DTT, 10% (v/v) glycerol. Final DMSO concentration is 1%. The activation mixture is pipetted in the following order • 2.5 μl compound in 4% DMSO • 2.5 μl ATP/MgCl2 mix • 5 μl premixed kinase solution MKK4:MEKK2 10:1 (w/w)
Protein concentrations in the activation mix are 1 μM MKK4 and 50 nM MEKK2.
(§2) A radiometric protein kinase assay was used for measuring the kinase activity of the respective protein kinases. All kinase assays were performed in 96-well polypropylene plates. After the reactions were stopped, the assay mixtures were transferred to 96-well MSFC filter-plates (Millipore). The reaction mix was passed through the filter membrane by aspiration, the membrane was washed 3 times with 150 mM H3PO4, once with ethanol, dried and liquid scintillation cocktail was added. Radioactivity was determined by counting of the samples in a Microbeta multiwell scintillation counter (Wallac).

[6] = biological target: T5, MKK4 active (Homo sapiens, UniProt P45985); test: Radiometric protein kinase assay, MKK4 active; assay type: biochemical; conditions: substrate JNK1 KRKR, ATP 0.2 μM, read-out: MKK4, potency derived from IC50-values
T5 construct: purchased ProQinase #0948-0000-1
T5 sequence (P45985 1-399): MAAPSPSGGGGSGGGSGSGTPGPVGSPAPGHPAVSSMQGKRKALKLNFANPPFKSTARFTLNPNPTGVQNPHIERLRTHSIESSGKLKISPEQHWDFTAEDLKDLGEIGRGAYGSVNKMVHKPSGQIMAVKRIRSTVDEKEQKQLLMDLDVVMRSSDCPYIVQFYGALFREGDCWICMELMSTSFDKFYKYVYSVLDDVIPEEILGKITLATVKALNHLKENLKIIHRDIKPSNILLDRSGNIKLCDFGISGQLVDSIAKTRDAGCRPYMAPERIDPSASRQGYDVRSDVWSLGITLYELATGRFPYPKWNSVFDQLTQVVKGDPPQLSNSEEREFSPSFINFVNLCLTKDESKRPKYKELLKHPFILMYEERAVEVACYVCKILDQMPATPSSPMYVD
Description: as §2

[7] = biological target: T6, MEKK2 (Homo sapiens, UniProt Q9Y2U5); test: Radiometric protein kinase assay, MEKK2; assay type: biochemical; conditions: substrate Casein, ATP 0.2 μM; read-out: MEKK2, potency derived from IC50-values
T6 construct: purchased ProQinase #0583-0000-1
T6 sequence (Q9Y2U5 1-619): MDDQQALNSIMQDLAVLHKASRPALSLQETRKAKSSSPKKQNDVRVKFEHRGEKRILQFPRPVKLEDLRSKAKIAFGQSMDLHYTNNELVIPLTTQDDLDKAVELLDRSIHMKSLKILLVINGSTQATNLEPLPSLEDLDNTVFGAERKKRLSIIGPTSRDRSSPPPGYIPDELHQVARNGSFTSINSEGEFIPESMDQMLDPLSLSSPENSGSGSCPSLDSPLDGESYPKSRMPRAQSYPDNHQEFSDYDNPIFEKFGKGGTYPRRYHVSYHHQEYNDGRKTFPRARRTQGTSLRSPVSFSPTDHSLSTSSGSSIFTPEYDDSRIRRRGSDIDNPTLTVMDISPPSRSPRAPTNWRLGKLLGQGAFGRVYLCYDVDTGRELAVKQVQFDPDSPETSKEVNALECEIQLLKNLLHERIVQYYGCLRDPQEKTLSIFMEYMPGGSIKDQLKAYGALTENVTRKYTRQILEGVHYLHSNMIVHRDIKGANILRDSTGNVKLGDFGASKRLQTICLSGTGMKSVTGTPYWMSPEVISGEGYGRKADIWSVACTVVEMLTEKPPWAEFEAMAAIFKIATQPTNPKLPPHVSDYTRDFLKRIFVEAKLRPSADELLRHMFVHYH
In short: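 Kinase activity measured radiometrically: stopped reactions were captured on filter plates, washed with 150 mM H3PO4 and ethanol, and incorporated radioactivity counted by liquid scintillation.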

Chain of BRaf (P15056 whole entry): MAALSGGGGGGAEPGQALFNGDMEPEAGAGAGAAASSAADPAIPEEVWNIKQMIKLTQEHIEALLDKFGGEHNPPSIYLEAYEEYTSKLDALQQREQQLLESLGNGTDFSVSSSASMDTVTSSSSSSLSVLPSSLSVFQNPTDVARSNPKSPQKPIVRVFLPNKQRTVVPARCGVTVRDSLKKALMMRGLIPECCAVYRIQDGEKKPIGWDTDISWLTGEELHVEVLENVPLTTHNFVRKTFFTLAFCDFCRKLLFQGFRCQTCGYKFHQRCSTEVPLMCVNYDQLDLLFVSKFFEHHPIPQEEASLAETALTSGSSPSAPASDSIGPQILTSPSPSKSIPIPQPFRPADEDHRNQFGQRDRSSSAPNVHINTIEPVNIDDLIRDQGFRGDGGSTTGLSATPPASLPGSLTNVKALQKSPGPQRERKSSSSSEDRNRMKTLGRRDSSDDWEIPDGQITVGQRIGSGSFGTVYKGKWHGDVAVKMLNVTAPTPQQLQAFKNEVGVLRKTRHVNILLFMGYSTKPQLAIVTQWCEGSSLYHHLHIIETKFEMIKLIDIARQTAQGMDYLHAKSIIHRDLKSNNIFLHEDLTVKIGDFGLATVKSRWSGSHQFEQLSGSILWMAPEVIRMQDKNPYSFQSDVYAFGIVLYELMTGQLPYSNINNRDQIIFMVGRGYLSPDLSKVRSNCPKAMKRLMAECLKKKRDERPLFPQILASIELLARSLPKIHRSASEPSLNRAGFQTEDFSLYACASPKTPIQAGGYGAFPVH
T2 sequence (P45983 1-384 isoform P45983-2): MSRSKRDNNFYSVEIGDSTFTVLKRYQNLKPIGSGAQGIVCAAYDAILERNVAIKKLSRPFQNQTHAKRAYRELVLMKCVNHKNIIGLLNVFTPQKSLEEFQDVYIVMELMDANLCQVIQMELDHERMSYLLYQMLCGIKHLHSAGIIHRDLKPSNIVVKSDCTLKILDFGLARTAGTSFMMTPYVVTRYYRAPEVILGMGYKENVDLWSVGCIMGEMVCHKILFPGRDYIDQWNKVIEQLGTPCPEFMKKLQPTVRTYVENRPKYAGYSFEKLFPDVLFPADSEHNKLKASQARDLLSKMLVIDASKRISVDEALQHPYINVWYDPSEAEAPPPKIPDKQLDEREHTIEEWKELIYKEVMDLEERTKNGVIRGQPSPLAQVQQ

Row | SMILES | MKK4, residual percent of control binding (PoC) [1] | Selectivity vs. JNK1, ratio PoC(JNK1)/PoC(MKK4) [2] | Selectivity vs. MKK7, ratio PoC(MKK7)/PoC(MKK4) [3] | Selectivity vs. BRaf, ratio PoC(BRaf)/PoC(MKK4) [4] | IC50 [5] [nM] | IC50 [6] [nM] | IC50 [7] [nM]
1 | CCCS(=O)(=O)Nc1ccc(F)c(C(=O)c2n[nH]c3ncc(-c4ccc(N)cc4)cc23)c1F [Example 18, N-(3-(5-(4-aminophenyl)-1H-pyrazolo[3,4-b]pyridine-3-carbonyl)-2,4-difluorophenyl)-propane-1-sulfonamide] | +++ (PoC < 1) | +++ (PoC(JNK1)/PoC(MKK4) ≥ 30) | +++ (PoC(MKK7)/PoC(MKK4) ≥ 30) | ++ (30 > PoC(BRaf)/PoC(MKK4) ≥ 10) | 500 to 1000 | < 500 | 1000 to 10000
2 | CCCS(=O)(=O)Nc1ccc(F)c(C(=O)c2n[nH]c3ncc(-c4ccc(O)cc4)cc23)c1F [Example 19, N-(2,4-difluoro-3-(5-(4-hydroxyphenyl)-1H-pyrazo-lo[3,4-b]pyridine-3-carbonyl)-phenyl)propane-1-sulfon-amide] | +++ (PoC < 1) | +++ (PoC(JNK1)/PoC(MKK4) ≥ 30) | +++ (PoC(MKK7)/PoC(MKK4) ≥ 30) | ++ (30 > PoC(BRaf)/PoC(MKK4) ≥ 10) | 1000 to 10000 | < 500 | 1000 to 10000
3 | CCCS(=O)(=O)Nc1ccc(F)c(C(=O)c2n[nH]c3ncc(-c4ccccc4O)cc23)c1F [Example 21, N-(2,4-difluoro-3-(5-(2-hydroxyphenyl)-1H-pyrazo-lo[3,4-b]pyridine-3-carbonyl)-phenyl)propane-1-sulfon-amide] | ++ (1 ≤ PoC < 10) | + (10 > PoC(JNK1)/PoC(MKK4) ≥ 3) | ++ (30 > PoC(MKK7)/PoC(MKK4) ≥ 10) | + (10 > PoC(BRaf)/PoC(MKK4) ≥ 3) | 1000 to 10000 | 500 to 1000 | 1000 to 10000
4 | CCCS(=O)(=O)Nc1ccc(F)c(C(=O)c2n[nH]c3ncc(-c4ccc([N+](=O)[O-])cc4)cc23)c1F [Example 23, N-(2,4-difluoro-3-(5-(4-nitrophenyl)-1H-pyrazolo-[3,4-b]pyridine-3-carbonyl)-phenyl)propane-1-sulfon-amide] | ++ (1 ≤ PoC < 10) | ++ (30 > PoC(JNK1)/PoC(MKK4) ≥ 10) | ++ (30 > PoC(MKK7)/PoC(MKK4) ≥ 10) | + (10 > PoC(BRaf)/PoC(MKK4) ≥ 3) | > 10000 | > 10000 | > 10000
5 | CCCS(=O)(=O)Nc1ccc(F)c(C(=O)c2n[nH]c3ncc(-c4ccc(S(C)(=O)=O)cc4)cc23)c1F [Example 24, N-(2,4-difluoro-3-(5-(4-(methylsulfonyl)phenyl)-1H-pyrazolo[3,4-b]pyridine-3-carbonyl)phenyl)propane-1-sulfonamide] | ++ (1 ≤ PoC < 10) | +++ (PoC(JNK1)/PoC(MKK4) ≥ 30) | +++ (PoC(MKK7)/PoC(MKK4) ≥ 30) | O (PoC(BRaf)/PoC(MKK4) < 3) | > 10000 | 500 to 1000 | > 10000
6 | CCCS(=O)(=O)Nc1ccc(F)c(C(=O)c2n[nH]c3ncc(-c4ccc(F)cc4)cc23)c1F [Example 25, N-(2,4-difluoro-3-(5-(4-fluorophenyl)-1H-pyrazo-lo[3,4-b]pyridine-3-carbonyl)-phenyl)propane-1-sulfon-amide] | ++ (1 ≤ PoC < 10) | +++ (PoC(JNK1)/PoC(MKK4) ≥ 30) | +++ (PoC(MKK7)/PoC(MKK4) ≥ 30) | ++ (30 > PoC(BRaf)/PoC(MKK4) ≥ 10) | 1000 to 10000 | 500 to 1000 | > 10000
7 | CCCS(=O)(=O)Nc1ccc(F)c(C(=O)c2n[nH]c3ncc(-c4cccc(N)c4)cc23)c1F [Example 27, N-(3-(5-(3-aminophenyl)-1H-pyrazolo[3,4-b]pyridine-3-carbonyl)-2,4-difluorophenyl)-propane-1-sulfonamide] | ++ (1 ≤ PoC < 10) | +++ (PoC(JNK1)/PoC(MKK4) ≥ 30) | +++ (PoC(MKK7)/PoC(MKK4) ≥ 30) | O (PoC(BRaf)/PoC(MKK4) < 3) | 500 to 1000 | < 500 | 1000 to 10000
8 | CCCS(=O)(=O)Nc1ccc(F)c(C(=O)c2n[nH]c3ncc(-c4ccccc4F)cc23)c1F [Example 31, N-(2,4-difluoro-3-(5-(2-fluorophenyl)-1H-pyrazo-lo[3,4-b]pyridine-3-carbonyl)phenyl)propane-1-sulfon-amide] | ++ (1 ≤ PoC < 10) | +++ (PoC(JNK1)/PoC(MKK4) ≥ 30) | +++ (PoC(MKK7)/PoC(MKK4) ≥ 30) | ++ (30 > PoC(BRaf)/PoC(MKK4) ≥ 10) | 1000 to 10000 | < 500 | 1000 to 10000
